From the NIST ThermoML archive (doi:10.1016/j.tca.2015.03.026)
Values joined by “and” are separate entries in the source; they are usually repeats but may differ in a detail not shown here. Equal entries are not always repeated.

Experiments:
[1] = Molar enthalpy of transition or fusion; conditions: Crystal; DSC
[2] = for Normal melting temperature: DTA

COc1ccccc1C(=O)O [2-methoxybenzoic acid]
Conditions | Molar enthalpy of transition or fusion [kcal/mol]
[1] | 5.71

[2]
Conditions | vapor or sublimation pressure
318.25 K, Crystal, Closed cell (Static) method | 6.16e-05 kPa
320.73 K, Crystal, Closed cell (Static) method | 8.28e-05 kPa
323.21 K, Crystal, Closed cell (Static) method | 0.0001133 kPa
325.68 K, Crystal, Closed cell (Static) method | 0.0001504 kPa
328.17 K, Crystal, Closed cell (Static) method | 0.0002043 kPa
330.65 K, Crystal, Closed cell (Static) method | 0.0002676 kPa
333.12 K, Crystal, Closed cell (Static) method | 0.0003567 kPa
335.61 K, Crystal, Closed cell (Static) method | 0.0004802 kPa
335.62 K, Crystal, Closed cell (Static) method | 0.0004752 kPa
338.08 K, Crystal, Closed cell (Static) method | 0.0006182 kPa
340.58 K, Crystal, Closed cell (Static) method | 0.000822 kPa and 0.0008262 kPa
343.05 K, Crystal, Closed cell (Static) method | 0.001076 kPa
344.3 K, Crystal, Transpiration method | 0.00121 kPa
345.3 K, Crystal, Transpiration method | 0.00133 kPa
345.4 K, Crystal, Transpiration method | 0.00133 kPa
345.54 K, Crystal, Closed cell (Static) method | 0.001402 kPa
346.4 K, Crystal, Transpiration method | 0.0015 kPa
347.2 K, Crystal, Transpiration method | 0.00163 kPa
347.4 K, Crystal, Transpiration method | 0.00164 kPa
348.02 K, Crystal, Closed cell (Static) method | 0.001813 kPa
348.34 K, Crystal, Closed cell (Static) method | 0.001883 kPa
348.4 K, Crystal, Transpiration method | 0.00179 kPa
349.2 K, Crystal, Transpiration method | 0.00196 kPa
350.4 K, Crystal, Transpiration method | 0.0023 kPa
350.5 K, Crystal, Closed cell (Static) method | 0.002351 kPa
350.82 K, Crystal, Closed cell (Static) method | 0.002438 kPa
352.4 K, Crystal, Transpiration method | 0.00275 kPa
353.3 K, Crystal, Closed cell (Static) method | 0.003074 kPa
353.5 K, Crystal, Transpiration method | 0.00317 kPa
354.5 K, Crystal, Transpiration method | 0.00349 kPa
355.5 K, Crystal, Transpiration method | 0.00377 kPa
355.78 K, Crystal, Closed cell (Static) method | 0.003984 kPa
356.5 K, Crystal, Transpiration method | 0.00408 kPa
357.6 K, Crystal, Transpiration method | 0.00472 kPa
358.26 K, Crystal, Closed cell (Static) method | 0.005029 kPa
358.4 K, Crystal, Transpiration method | 0.00508 kPa
359.5 K, Crystal, Transpiration method | 0.00566 kPa
360.5 K, Crystal, Transpiration method | 0.00637 kPa
360.75 K, Crystal, Closed cell (Static) method | 0.006481 kPa
361.6 K, Crystal, Transpiration method | 0.00677 kPa
362.5 K, Crystal, Transpiration method | 0.00755 kPa
363.23 K, Crystal, Closed cell (Static) method | 0.008104 kPa
363.6 K, Crystal, Transpiration method | 0.00827 kPa
364.5 K, Crystal, Transpiration method | 0.00908 kPa
365.71 K, Crystal, Closed cell (Static) method | 0.01039 kPa
366.4 K, Crystal, Transpiration method | 0.0107 kPa
366.6 K, Crystal, Transpiration method | 0.01098 kPa
368.19 K, Crystal, Closed cell (Static) method | 0.01325 kPa
368.6 K, Crystal, Transpiration method | 0.01323 kPa
369.6 K, Crystal, Transpiration method | 0.01454 kPa
378.32 K, Liquid, Closed cell (Static) method | 0.0318 kPa
378.33 K, Liquid, Closed cell (Static) method | 0.0318 kPa
380.81 K, Liquid, Closed cell (Static) method | 0.0371 kPa
380.82 K, Liquid, Closed cell (Static) method | 0.0371 kPa
383.29 K, Liquid, Closed cell (Static) method | 0.0435 kPa
383.32 K, Liquid, Closed cell (Static) method | 0.0435 kPa
385.78 K, Liquid, Closed cell (Static) method | 0.0507 kPa and 0.0504 kPa
388.26 K, Liquid, Closed cell (Static) method | 0.0588 kPa
388.29 K, Liquid, Closed cell (Static) method | 0.0585 kPa
390.97 K, Liquid, Closed cell (Static) method | 0.0691 kPa
390.98 K, Liquid, Closed cell (Static) method | 0.0695 kPa
393.47 K, Liquid, Closed cell (Static) method | 0.0797 kPa and 0.0801 kPa
395.94 K, Liquid, Closed cell (Static) method | 0.0929 kPa
395.95 K, Liquid, Closed cell (Static) method | 0.0933 kPa
398.44 K, Liquid, Closed cell (Static) method | 0.1072 kPa and 0.1071 kPa
400.91 K, Liquid, Closed cell (Static) method | 0.1239 kPa
400.94 K, Liquid, Closed cell (Static) method | 0.1244 kPa
403.41 K, Liquid, Closed cell (Static) method | 0.1413 kPa
403.44 K, Liquid, Closed cell (Static) method | 0.1428 kPa
405.88 K, Liquid, Closed cell (Static) method | 0.1621 kPa
405.89 K, Liquid, Closed cell (Static) method | 0.1621 kPa
408.38 K, Liquid, Closed cell (Static) method | 0.1849 kPa
408.39 K, Liquid, Closed cell (Static) method | 0.1865 kPa
410.85 K, Liquid, Closed cell (Static) method | 0.2113 kPa
410.87 K, Liquid, Closed cell (Static) method | 0.2131 kPa
413.34 K, Liquid, Closed cell (Static) method | 0.2389 kPa
413.38 K, Liquid, Closed cell (Static) method | 0.242 kPa

Conditions | Normal melting temperature [°C]
[2], Crystal | 101.6

Cc1ccccc1C(=O)O [2-methylbenzoic acid]
[2], Crystal, Transpiration method
Conditions | vapor or sublimation pressure [kPa]
331.2 K | 0.0028
335.2 K | 0.00421
341.2 K | 0.00767
345.2 K | 0.0112
348.2 K | 0.01564
351.2 K | 0.01962
355.4 K | 0.02895
358.6 K | 0.0389
358.7 K | 0.03932
361.2 K | 0.05138
364.2 K | 0.06664
367.4 K | 0.08391
373 K | 0.1339

COc1cccc(C(=O)O)c1 [3-methoxybenzoic acid]
Conditions | Molar enthalpy of transition or fusion [kcal/mol]
[1] | 5.23

Conditions | Normal melting temperature [°C]
[2], Crystal | 109.0

COc1ccc(C(=O)O)cc1 [4-methoxybenzoic acid]
[2], Crystal, Transpiration method
Conditions | vapor or sublimation pressure [kPa]
363.3 K | 0.00117
368.2 K | 0.0019
374.9 K | 0.00353
383.2 K | 0.00753
384.5 K | 0.0085
388.3 K | 0.01217
391.1 K | 0.01556
394.2 K | 0.01971
397.2 K | 0.0267
400.3 K | 0.03247
403.4 K | 0.04422
406.2 K | 0.05311

Cc1ccc(C(=O)O)cc1 [4-methylbenzoic acid]
Conditions | Molar enthalpy of transition or fusion [kcal/mol]
[1] | 5.33

[2], Crystal, Transpiration method
Conditions | vapor or sublimation pressure [kPa]
340.4 K | 0.00123
343.3 K | 0.00162
348.5 K | 0.00271
356.7 K | 0.00558
359.3 K | 0.00715
363.9 K | 0.01097
368.5 K | 0.01623
373.7 K | 0.02473
374.4 K | 0.02687
378.8 K | 0.03813
380.1 K | 0.04273
384.4 K | 0.05807
389.2 K | 0.08453
394 K | 0.1213
398.8 K | 0.1748

Conditions | Normal melting temperature [°C]
[2], Crystal | 180.2

O=C(O)c1ccccc1 [benzoic acid]
[2], Crystal
Conditions | vapor or sublimation pressure [kPa]
297.67 K, Closed cell (Static) method | 0.000108
299.96 K, Closed cell (Static) method | 0.000142
300.03 K, Closed cell (Static) method | 0.000143
302.51 K, Closed cell (Static) method | 0.000193
304.75 K, Closed cell (Static) method | 0.00025
307.27 K, Closed cell (Static) method | 0.000335
309.63 K, Closed cell (Static) method | 0.000436
312.08 K, Closed cell (Static) method | 0.000573
314.4 K, Closed cell (Static) method | 0.000738
314.59 K, Closed cell (Static) method | 0.000754
316.3 K, Transpiration method | 0.00095
316.91 K, Closed cell (Static) method | 0.000969
319.48 K, Closed cell (Static) method | 0.00127
320.4 K, Transpiration method | 0.00147
321.91 K, Closed cell (Static) method | 0.00164
324 K, Transpiration method | 0.00214
324.39 K, Closed cell (Static) method | 0.00212
326.76 K, Closed cell (Static) method | 0.00268
327.4 K, Transpiration method | 0.00302
329.2 K, Closed cell (Static) method | 0.00343
331.62 K, Closed cell (Static) method | 0.00436
332.4 K, Transpiration method | 0.00495
334.07 K, Closed cell (Static) method | 0.00554
336.46 K, Closed cell (Static) method | 0.00693
337.4 K, Transpiration method | 0.00809
338.98 K, Closed cell (Static) method | 0.00873
342.3 K, Transpiration method | 0.01272
347.3 K, Transpiration method | 0.01965
352.4 K, Transpiration method | 0.03114
357.4 K, Transpiration method | 0.04619
362.5 K, Transpiration method | 0.06987
367.5 K, Transpiration method | 0.1076
